Laboratory results reported in US20220409577A1, “INTRATUMORAL ADMINISTRATION OF ASCORBIC ACID AND QUINONE COMPOUNDS FOR TUMOR TREATMENT” (IC-MedTech Corp., priority 2021, published 2022).

Test system: Glioblastoma cells (GS9L)
Experiment: Antitumor activity in a glioblastoma xenograft mouse model (GS9L), intracranial treatment
Type: in vivo, Balb/c nude mice
Details: glioblastoma-bearing mice; single intracranial injection on Day 4; TMZ 4 mg/kg; L-ascorbic acid 1.4 or 7 mg/kg + menadione 14 or 70 μg/kg, then oral L-ascorbic acid 15 g/L and menadione 150 mg/L in water daily
Method: Six-week-old male Balb/c nude mice were maintained in specific pathogen-free conditions. Glioblastoma cells (GS9L) were cultured in DMEM supplemented with 10% FBS, penicillin (100 U/mL), and streptomycin (100 mg/L) at 37° C. in a humidified atmosphere containing 5% CO2. After deep anesthesia, the mice were positioned in a stereotactic frame. A small craniectomy was performed at 2-3 mm from the midline and 1 mm anterior to the coronal suture. The glioblastoma cells (5×10^5 cells in 5 μL) were stereotactically injected into the brain parenchyma at a depth of 3 mm on Day 1 using an automated injector.
Vitamin C (L-ascorbic acid) was dissolved in PBS at 10 mM (pH 7.4). Menadione and temozolomide (TMZ) were each dissolved in DMSO at 10 mM as a stock solution and diluted in PBS when in use. The final concentration of DMSO was below 1%. […] The glioblastoma-bearing mice were analyzed on Days 4, 7, 14, 21, and 28 (i.e., 0, 3, 10, 17, and 24 days after drug administration) by MRI to determine the size of the glioblastoma. […]

Cn1nnc2c(C(N)=O)ncn2c1=O [TMZ, temozolomide]
side-effects (e.g., fever, tetraplegia, or convulsions): experienced side-effects (e.g., fever, tetraplegia, or convulsions)
